Patent publication US5272151A, “Aminoacyl and oligopeptidyl derivatives of allopurinol exhibiting immunostimulatory activity, and pharmaceutical formulations containing these substances” (Sigma-Tau Industrie Farmaceutiche Riunite S.p.A., priority 1991, dated 1993)
Read-outs that look alike come from different tables or passages of the source.

How the values were obtained:
S. marcescens = experiment: Protective effect in experimentally-infected immunosuppressed mice (S. marcescens); format: in vivo; conditions: for % Mortality, S. marcescens: cyclophosphamide-immunodepressed CD1 mice, 25 mg/kg/d i.p. day -5 through day -1, challenge day 0
From the text: (§1) Evaluation of the protective effects of ST 689 and ST 789 in experimentally-infected immunosuppressed mice.
(§2) Male CDl mice (Charles River, Italy), 6-10 weeks old, were used in experimental groups of 9-20 animals. Systemic infection in the mice was achieved by intrapcritoncal inoculation of a pathogenic species of Klebsiclla (K. oxytoca), Proteus (P. mirabilis), Serratia (S. marcescens),and Hscherichia (E. coli). Eighteen-hour broth cultures were used to prepare infectious inocula that were either sublethal (Proteus) or which corresponded to an LD30 (Serratia) and an LD10 (Escherichia, Klebsiella). The bacterial challenge, inoculated i.p. in 0.5 mL of 5% gastric mucin, was designed to cause the death of animals immunodepressed with cyclophosphamide (administered i.p. in 0.2 mL of sterile physiological solution at a dosage of 100 mg/kg) 5 days prior to infection. The compounds were administered i.p. at daily doses of 25 mg/kg from day -5 to day -1 with respect to the day of bacterial inoculation (day 0). The results are expressed as % mortality and were statistically analysed using Fisher's test (Biostatistics in Pharmacology, vol. 2, Pergamon Press).

Sarcoma 180 = experiment: Protective effect in mice carrying Sarcoma 180; format: in vivo; conditions: for % survival: CD1 mice carrying Sarcoma 180; for % survival / Died/Total / MST (Mean Survival Time; median): 25 mg/kg/d i.p. day +1 through +10; for Died/Total / MST (Mean Survival Time; median): CD1 mice, 1×10^4 Sarcoma 180 cells i.p.; for MST (Mean Survival Time; median): 25 mg/kg/day; for Body weight (x ± S.E.) of Sarcoma 180-carrying animals: 25 mg/kg/d i.p., in g
Protocol: Evaluation of the protective effect of ST 689 and ST 789 in tumour-carryingmice,
Outbred male CDI mice (Charles River, Italy), 7 weeks old, were used. Experimental groups containing 10 animals were inoculated i.p. with 1×10^4 Sarcoma 180 cells (ATCC, Rockville, Md., U.S.A.) in 0.1 mL of TC 199 medium. The compounds were administered intraperitoneally in 0.2 mL of sterile physiological solution at daily doses of 25 mg/kg from day +1 through day +10 relative to the day of tumour transplant (day 0). In addition, body weights of the animals were followed from day 0 through day 20. The weights of the animals can be indicative of the development of neoplastic processes. The activity of the compounds was evaluated in terms of % survival expressed as the Mean Survival Time (MST). The data reported in Table 4 indicate a substancial protective effect of ST 689 compared to ST 789 vis-a-vis % survival (20% vs. 10%) in terms of MST (21 vs. 17).

P. mirabilis = experiment: Protective effect in experimentally-infected immunosuppressed mice (P. mirabilis); format: in vivo; conditions: for % Mortality, P. mirabilis: cyclophosphamide-immunodepressed CD1 mice, 25 mg/kg/d i.p. day -5 through day -1, challenge day 0
From the text: as §1, §2

[1] = tested on: plaque-forming cells (PFC) in the spleen of mice immunised with sheep red blood cells (SRBC); experiment: Production of primary antibodies (Jerne test) in the spleen of mice immunised with SRBC; format: in vivo; conditions: for PFC/10^6 cells (x ± S.E.) / PFC/spleen (x ± S.E.): 25 mg/kg/d i.p. from day -3 through day 3, SRBC immunisation day 0, B6D2F1 mice
Protocol: The effects of ST 689 and ST 789 on the production of primary antibodies (Jerne test) in the spleen of mice immunised with sheep red blood cells (SRBC).
Male hybrid B6 D2 F1 mice (Charles River, Italy), 7-8 weeks old, were used in experimental groups of 6 animals each. In this test, each animal was examined individually.
The compounds were administered intraperitoneally at a daily dose of 25 mg/kg from day -3 to day +3, where day 0 was the day of immunisation. The experimental procedure employed is described in Jerne, N. K. et al., Transpl. Rev., 18:30 (1974). Animals were immunised by i.p. administration of a suspension of SRBC (1×10^8 cells/mouse in 0.2 mL of PBS buffer). Five days following this treatment, the animals were killed and their spleens sterilely removed. The splenocytes were suspended at a concentration of 1×10^7 cells/ml, and 0.1 mL of this splenocyte suspension was mixed with 2 mL of warm Hank's agar medium +0.2 mL of 10% SRBC in PBS buffer and incubated in a Petri dish for 60 min at 37° C. (the samples were tested in triplicate). Complement (2 mL of guinea pig serum diluted 1:10 with Tris buffer) was added, and the Petri dishes incubated for 30 min at 37° C. In the presence of complement the cells secreted anti-SRBC antibodies, which evoked a haemolytic reaction. Such a reaction is indicative of lytic plaques in the samples contained in the Petri dishes.
The results are expressed as: […]
a) number of plaque-forming cells (PFC) in a population of 1×10^6cells;
b) number of PFC in intact spleens.
The values obtained were analysed using Dunnett's test (Biostatistics in Pharmacology, vol. 2, Pergamon Press) to ascertain the statistical significance of differences between the treated and control animal groups.

K. oxytoca = experiment: Protective effect in experimentally-infected immunosuppressed mice (K. oxytoca); format: in vivo; conditions: for % Mortality, K. oxytoca: cyclophosphamide-immunodepressed CD1 mice, 25 mg/kg/d i.p. day -5 through day -1, challenge day 0
From the text: as §1, §2

[2] = tested on: CEM-CM3 human leukaemic lymphoblasts; experiment: In vitro-ex vivo cytostatic activity of mouse peritoneal macrophages towards tumour targets; conditions: for inhibition at 25 mg/kg: Mus musculus, Peritoneal macrophage
Protocol: In vitro-ex vivo effects of substances ST 689 and ST 789 on the cytostatic activity of mouse peritoneal macrophages (MO) towards tumour targets.
Male B6 D2 F1 mice (Charles River, Italy), 7 weeks old, 5 animals per experimental group, were treated with the above substances i.p. at daily dosages of 25 mg/kg from day -5 through day -1 relative to the day of macrophage sampling (day 0). The tumour target, CEM--CM3 human leukaemic lymphoblasts, was admixed with adherent Mo so as to have two different precisely-measured effector:target ratios, viz. 10:1 and 20:1. Each sample, prepared in triplicate in flat-bottom microliter wells, was labelled with ^3 H--TdR (0.05 μCi) by incubation for 18 h at 37° C. The tumour cells from each well were collected on filters, counted in a β-counter, and the % inhibition of tumour target growth determined using the formula. [formula]

[3] = immunodepressed mice, 25 mg/kg/d i.p.
[4] = day +13, number in parentheses = animals still alive
[5] = day +15, number in parentheses = animals still alive
[6] = day +17, number in parentheses = animals still alive
[7] = day +20, number in parentheses = animals still alive

Compound	% Mortality, S. marcescens (S. marcescens) [%]	% survival (Sarcoma 180) [%]	Died/Total (Sarcoma 180)	MST (Mean Survival Time; median) (Sarcoma 180)	Body weight (x ± S.E.) of Sarcoma 180-carrying animals (Sarcoma 180; day 0)	Body weight (x ± S.E.) of Sarcoma 180-carrying animals (Sarcoma 180; day +1)	Body weight (x ± S.E.) of Sarcoma 180-carrying animals (Sarcoma 180; day +3)	Body weight (x ± S.E.) of Sarcoma 180-carrying animals (Sarcoma 180; day +6)	Body weight (x ± S.E.) of Sarcoma 180-carrying animals (Sarcoma 180; day +8)	Body weight (x ± S.E.) of Sarcoma 180-carrying animals (Sarcoma 180; day +10)	Body weight (x ± S.E.) of Sarcoma 180-carrying animals (Sarcoma 180; [4])	Body weight (x ± S.E.) of Sarcoma 180-carrying animals (Sarcoma 180; [5])	Body weight (x ± S.E.) of Sarcoma 180-carrying animals (Sarcoma 180; [6])	Body weight (x ± S.E.) of Sarcoma 180-carrying animals (Sarcoma 180; [7])	% Mortality, P. mirabilis (P. mirabilis)	PFC/10^6 cells (x ± S.E.) [1] [PFC/10^6 cells]	PFC/spleen (x ± S.E.) [1] [PFC/spleen]	% Mortality, K. oxytoca (K. oxytoca) [%]	other results
O=c1[nH]cnc2c1cnn2CCCCCO [ST 689, 1,5-dihydro-1-(5-hydroxypentyl)-4H-pyrazolo-[3,4-d]-pyrimidin-4-one]	20	20	8/10	21	23.0 ± 0.38	23.7 ± 0.34	24.5 ± 0.50	27.1 ± 0.62	28.3 ± 0.97	28.4 ± 0.81	28.6 ± 0.89	30.5 ± 1.28	32.5 ± 1.70	32.6 ± 1.85	10%	303 ± 47	64839 ± 15985	10	Protective activity in Serratia infection, in words (S. marcescens; [3]): better than ST 789; Neoplastic proliferation judged from body weights, in words (Sarcoma 180; compared to animals treated with ST 789): diminution of neoplastic proliferation; Protective activity in Proteus infection, in words (P. mirabilis; [3]): equal to that of ST 789; Activity in terms of the number of PFC per spleen, in words ([1]; 25 mg/kg/d i.p., increase not statistically significant with respect to the control): more active than ST 789; Protective activity in Klebsiella infection, in words (K. oxytoca; [3]): equal to that of ST 789; inhibition at 25 mg/kg ([2]; effector:target ratio 10:1, 25 mg/kg daily day -5 through day -1, read-out: % Growth Inhibition 10:1): 32.8 ± 1.84%; inhibition at 25 mg/kg ([2]; effector:target ratio 20:1, 25 mg/kg daily day -5 through day -1, read-out: % Growth Inhibition 20:1): 48 ± 5.46%
N=C(N)NCCC[C@H](NC(=O)OCCCCCn1cnc2c(=O)[nH]cnc21)C(=O)O [ST 789, N-alfa-5-(hypoxanthin-9-yl)-pentyloxycarbonylarginine, reference compound]	50	10	9/10	17	22.8 ± 0.30	23.6 ± 0.34	24.8 ± 0.30	27.6 ± 0.46	29.5 ± 0.64	31.5 ± 0.92	32.2 ± 0.96	33.4 ± 1.05	33.7 ± 1.46	34.8 ± 3.90	11,1%	220 ± 30	35011 ± 4761	10	Growth inhibition of the CEM-CM3 cell line, in words ([2]; 25 mg/kg daily i.p.): definite increase in growth inhibition; % Growth Inhibition 10:1 ([2]; effector:target ratio 10:1, 25 mg/kg daily day -5 through day -1): 15.85 ± 3.33%; % Growth Inhibition 20:1 ([2]; effector:target ratio 20:1, 25 mg/kg daily day -5 through day -1): 30.31 ± 5.19%
